Data published in article PMC5218480 (PLoS ONE, 2017).

Tested on: MV-4-11 cells
Assay: Gene expression microarray analysis (Affymetrix PrimeView) and GSEA
Type: cell-based, human
Parameters: RFU PODN (11730768_x_at) / Fold change /veh PODN (11730768_x_at) / RFU LINC00158 (11744669_a_at) / Fold change /veh LINC00158 (11744669_a_at) / RFU DUSP10 (11751237_a_at) / Fold change /veh DUSP10 (11751237_a_at) / RFU ID3 (11757404_x_at) / Fold change /veh ID3 (11757404_x_at) / RFU PLEKHG5 (11737974_s_at) / Fold change /veh PLEKHG5 (11737974_s_at) / RFU LRRC4B (11730491_at) / Fold change /veh LRRC4B (11730491_at) / RFU GIMAP4 (11747438_a_at) / Fold change /veh GIMAP4 (11747438_a_at) / RFU KRT8 (11758183_x_at) / Fold change /veh KRT8 (11758183_x_at) / RFU CNN1 (11734310_a_at) / Fold change /veh CNN1 (11734310_a_at) / RFU VPS37D (11726825_at) / Fold change /veh VPS37D (11726825_at) / RFU C10orf10 (11716522_x_at) / Fold change /veh C10orf10 (11716522_x_at) / RFU KIR2DL2 /// KIR2DL4 /// KIR2DL5A /// KIR2DL5B /// KIR2DS1 /// KIR2DS2 /// KIR2DS3 /// KIR2DS4 /// KIR3DL3 /// KIR3DL3 /// KIR3DS1 (11738374_at) / Fold change /veh KIR2DL2 /// KIR2DL4 /// KIR2DL5A /// KIR2DL5B /// KIR2DS1 /// KIR2DS2 /// KIR2DS3 /// KIR2DS4 /// KIR3DL3 /// KIR3DL3 /// KIR3DS1 (11738374_at) / RFU C1QL1 (11718748_at) / Fold change /veh C1QL1 (11718748_at) / RFU TMPRSS4 (11747572_a_at) / Fold change /veh TMPRSS4 (11747572_a_at) / RFU HAMP (11756126_x_at) / Fold change /veh HAMP (11756126_x_at) / RFU RNFT2 (11725882_a_at) / Fold change /veh RNFT2 (11725882_a_at) / RFU NR4A2 (11747474_a_at) / Fold change /veh NR4A2 (11747474_a_at) / RFU ABCC12 (11746883_a_at) / Fold change /veh ABCC12 (11746883_a_at) / RFU TMEM136 (11760407_x_at) / Fold change /veh TMEM136 (11760407_x_at) / RFU CLDN22 /// WWC2 (11732394_at) / Fold change /veh CLDN22 /// WWC2 (11732394_at) / RFU HLA-DPB1 (11760878_x_at) / Fold change /veh HLA-DPB1 (11760878_x_at) / RFU SPINT1 (11716480_a_at) / Fold change /veh SPINT1 (11716480_a_at) / RFU GAP43 (11754022_s_at) / Fold change /veh GAP43 (11754022_s_at) / RFU A4GNT (11735810_at) / Fold change /veh A4GNT (11735810_at) / RFU PRB3 (11715151_x_at) / Fold change /veh PRB3 (11715151_x_at) / RFU TUBB4B (11761932_at) / Fold change /veh TUBB4B (11761932_at) / RFU CAPN14 (11732068_a_at) / Fold change /veh CAPN14 (11732068_a_at) / RFU TMCC2 (11721928_a_at) / Fold change /veh TMCC2 (11721928_a_at) / RFU IRGQ (11745062_a_at) / Fold change /veh IRGQ (11745062_a_at) / RFU FAM174B (11720279_a_at) / Fold change /veh FAM174B (11720279_a_at) / RFU TMPRSS4 (11748680_a_at) / Fold change /veh TMPRSS4 (11748680_a_at) / RFU FAM212B (11763350_a_at) / Fold change /veh FAM212B (11763350_a_at) / RFU PLEKHG5 (11743358_a_at) / Fold change /veh PLEKHG5 (11743358_a_at) / RFU ZSCAN30 (11745921_a_at) / Fold change /veh ZSCAN30 (11745921_a_at) / RFU CMKLR1 (11741424_a_at) / Fold change /veh CMKLR1 (11741424_a_at) / RFU LOC101060620 /// MAPK8IP1 (11723275_at) / Fold change /veh LOC101060620 /// MAPK8IP1 (11723275_at) / RFU SPTSSB (11747773_x_at) / Fold change /veh SPTSSB (11747773_x_at) / RFU PRSS12 (11739890_at) / Fold change /veh PRSS12 (11739890_at) / RFU BIN1 (11741810_x_at) / Fold change /veh BIN1 (11741810_x_at) / RFU WNT11 (11732464_a_at) / Fold change /veh WNT11 (11732464_a_at) / RFU C10orf10 (11716521_a_at) / Fold change /veh C10orf10 (11716521_a_at) / RFU C5orf56 (11738089_at) / Fold change /veh C5orf56 (11738089_at) / RFU CYB561 (11721691_x_at) / Fold change /veh CYB561 (11721691_x_at) / RFU ANKRD19P (11752326_a_at) / Fold change /veh ANKRD19P (11752326_a_at) / RFU OR2T12 /// OR2T33 /// OR2T8 (11738714_s_at) / Fold change /veh OR2T12 /// OR2T33 /// OR2T8 (11738714_s_at) / RFU VCAN (11748164_a_at) / Fold change /veh VCAN (11748164_a_at) / RFU JSRP1 (11732532_at) / Fold change /veh JSRP1 (11732532_at) / RFU KRTAP10-11 (11738290_x_at) / Fold change /veh KRTAP10-11 (11738290_x_at) / RFU MYO3A (11730013_a_at) / Fold change /veh MYO3A (11730013_a_at) / RFU EBF3 (11725865_a_at) / Fold change /veh EBF3 (11725865_a_at) / RFU CAMK2N1 (11719241_x_at) / Fold change /veh CAMK2N1 (11719241_x_at) / RFU C5orf56 (11738088_a_at) / Fold change /veh C5orf56 (11738088_a_at) / RFU OLFML3 (11715873_a_at) / Fold change /veh OLFML3 (11715873_a_at) / RFU LOC100653217 /// NTM (11731650_a_at) / Fold change /veh LOC100653217 /// NTM (11731650_a_at) / RFU MAPK11 (11762145_a_at) / Fold change /veh MAPK11 (11762145_a_at) / RFU FIZ1 (11724087_x_at) / Fold change /veh FIZ1 (11724087_x_at) / RFU OASL (11726364_x_at) / Fold change /veh OASL (11726364_x_at) / RFU SOX15 (11748057_x_at) / Fold change /veh SOX15 (11748057_x_at) / RFU CD79A (11719716_a_at) / Fold change /veh CD79A (11719716_a_at) / RFU HIST1H1D (11736915_at) / Fold change /veh HIST1H1D (11736915_at) / RFU CASKIN2 (11723855_a_at) / Fold change /veh CASKIN2 (11723855_a_at) / RFU LOC730098 (11760151_x_at) / Fold change /veh LOC730098 (11760151_x_at) / RFU OR4N2 (11742367_at) / Fold change /veh OR4N2 (11742367_at) / RFU PRRT2 (11749266_a_at) / Fold change /veh PRRT2 (11749266_a_at) / RFU SNX32 (11753110_a_at) / Fold change /veh SNX32 (11753110_a_at) / RFU CDHR5 (11726645_a_at) / Fold change /veh CDHR5 (11726645_a_at) / RFU RCAN1 (11760418_a_at) / Fold change /veh RCAN1 (11760418_a_at) / RFU FAM167A (11723789_a_at) / Fold change /veh FAM167A (11723789_a_at) / RFU FAM26E (11764081_at) / Fold change /veh FAM26E (11764081_at) / RFU ISYNA1 (11749810_s_at) / Fold change /veh ISYNA1 (11749810_s_at) / RFU ACY1 (11761880_at) / Fold change /veh ACY1 (11761880_at) / RFU 11764098_at / Fold change /veh 11764098_at / RFU SAMD14 (11745864_x_at) / Fold change /veh SAMD14 (11745864_x_at) / RFU NPB (11741838_a_at) / Fold change /veh NPB (11741838_a_at) / RFU TMPRSS6 (11731388_a_at) / Fold change /veh TMPRSS6 (11731388_a_at) / RFU KRTAP10-2 (11738614_at) / Fold change /veh KRTAP10-2 (11738614_at) / RFU ARHGAP8 /// PRR5-ARHGAP8 (11727945_x_at) / Fold change /veh ARHGAP8 /// PRR5-ARHGAP8 (11727945_x_at) / RFU KRTAP5-7 /// NADSYN1 (11734609_at) / Fold change /veh KRTAP5-7 /// NADSYN1 (11734609_at) / RFU RASL12 (11751679_a_at) / Fold change /veh RASL12 (11751679_a_at) / RFU CDKN2B (11736163_a_at) / Fold change /veh CDKN2B (11736163_a_at) / RFU PRF1 (11729649_at) / Fold change /veh PRF1 (11729649_at) / RFU, ZNF638 /// ZNF638-IT1 / Fold change vs veh, ZNF638 /// ZNF638-IT1 / RFU, PANK3 / Fold change vs veh, PANK3 / RFU, SH3YL1 / Fold change vs veh, SH3YL1 / RFU, ZEB2 / Fold change vs veh, ZEB2 / RFU, NRIP1 / Fold change vs veh, NRIP1 / RFU, PTTG1IP / Fold change vs veh, PTTG1IP / RFU, CAPN2 / Fold change vs veh, CAPN2 / RFU, MED14 / Fold change vs veh, MED14 / RFU, SNORA58 / Fold change vs veh, SNORA58 / RFU, C1orf63 / Fold change vs veh, C1orf63 / RFU, LRRFIP1 / Fold change vs veh, LRRFIP1 / RFU, NDUFAF7 / Fold change vs veh, NDUFAF7 / RFU, SLC12A2 / Fold change vs veh, SLC12A2 / RFU, IBTK / Fold change vs veh, IBTK / RFU, ESF1 / Fold change vs veh, ESF1 / Fold change vs veh, TMEM50B / RFU, TAOK1 / Fold change vs veh, TAOK1 / RFU, ACBD3 / Fold change vs veh, ACBD3 / RFU, TMA16 / Fold change vs veh, TMA16 / RFU, RWDD3 / Fold change vs veh, RWDD3 / RFU, BCAT1 / Fold change vs veh, BCAT1 / RFU, EDEM3 / Fold change vs veh, EDEM3 / RFU, TMEM33 / Fold change vs veh, TMEM33 / RFU, WDR75 / Fold change vs veh, WDR75 / RFU, AHCTF1 / Fold change vs veh, AHCTF1 / RFU, TFRC / Fold change vs veh, TFRC / RFU, ZDHHC17 / Fold change vs veh, ZDHHC17 / RFU, NOM1 / Fold change vs veh, NOM1 / RFU, ARL8B / Fold change vs veh, ARL8B / RFU, ZBTB11 / Fold change vs veh, ZBTB11 / RFU, TAMM41 / Fold change vs veh, TAMM41 / RFU, KIAA1704 /// LOC100996395 / Fold change vs veh, KIAA1704 /// LOC100996395 / RFU, ING1 / Fold change vs veh, ING1 / RFU, TRMT61B / Fold change vs veh, TRMT61B / RFU, FUBP3 / Fold change vs veh, FUBP3 / RFU, TP53 / Fold change vs veh, TP53 / RFU, TNKS2 / Fold change vs veh, TNKS2 / RFU, ZFP14 / Fold change vs veh, ZFP14 / RFU, ACTR2 / Fold change vs veh, ACTR2 / RFU, PPP3R1 / Fold change vs veh, PPP3R1 / RFU, PIK3R1 / Fold change vs veh, PIK3R1 / RFU, HNRNPA1 / Fold change vs veh, HNRNPA1 / RFU, RNF170 / Fold change vs veh, RNF170 / RFU, ZNF28 / Fold change vs veh, ZNF28 / RFU, RNGTT / Fold change vs veh, RNGTT / RFU, OGT / Fold change vs veh, OGT / RFU, BRD1 / Fold change vs veh, BRD1 / RFU, MARS / Fold change vs veh, MARS / RFU, ZNF655 / Fold change vs veh, ZNF655 / RFU, FAHD1 / Fold change vs veh, FAHD1 / RFU, BDP1 / Fold change vs veh, BDP1 / RFU, LRRCC1 / Fold change vs veh, LRRCC1 / RFU, ARID1A / Fold change vs veh, ARID1A / RFU, ZNF146 / Fold change vs veh, ZNF146 / RFU, ZNF330 / Fold change vs veh, ZNF330 / RFU, GPN3 / Fold change vs veh, GPN3 / RFU, C9orf123 / Fold change vs veh, C9orf123 / RFU, N4BP2L2 / Fold change vs veh, N4BP2L2 / RFU, ARFIP1 / Fold change vs veh, ARFIP1 / RFU, FAM179B / Fold change vs veh, FAM179B / RFU, BCL10 / Fold change vs veh, BCL10 / RFU, UHRF1BP1L / Fold change vs veh, UHRF1BP1L / RFU, BET1 / Fold change vs veh, BET1 / RFU, CNOT2 / Fold change vs veh, CNOT2 / RFU, ZNF268 / Fold change vs veh, ZNF268 / Fold change vs veh, ZNF507 / RFU, DGCR2 / Fold change vs veh, DGCR2 / RFU, WDSUB1 / Fold change vs veh, WDSUB1 / Fold change vs veh, HSP90B1 /// MIR3652 / RFU, ADSS / Fold change vs veh, ADSS / RFU, GK / Fold change vs veh, GK / RFU, ZNF148 / Fold change vs veh, ZNF148 / RFU, TAF9 / Fold change vs veh, TAF9 / RFU, SLC1A5 / Fold change vs veh, SLC1A5 / RFU, SLMO2 / Fold change vs veh, SLMO2 / RFU, ABCC4 / Fold change vs veh, ABCC4 / RFU, LOC101060439 /// RAP1B / Fold change vs veh, LOC101060439 /// RAP1B / RFU, RFX7 / Fold change vs veh, RFX7 / RFU, GTPBP10 / Fold change vs veh, GTPBP10 / RFU, CNEP1R1 / Fold change vs veh, CNEP1R1 / RFU, BIVM-ERCC5 /// ERCC5 / Fold change vs veh, BIVM-ERCC5 /// ERCC5 / RFU, ILF3 / Fold change vs veh, ILF3 / RFU 11762660_at / Fold change /veh 11762660_at / RFU VCAN (11757783_s_at) / Fold change /veh VCAN (11757783_s_at) / RFU DDX43 (11728927_at) / Fold change /veh DDX43 (11728927_at) / RFU KRT8 (11758188_x_at) / Fold change /veh KRT8 (11758188_x_at) / RFU NKD1 (11759106_at) / Fold change /veh NKD1 (11759106_at) / RFU SRD5A1 (11742802_a_at) / Fold change /veh SRD5A1 (11742802_a_at) / RFU TPSAB1 /// TPSB2 (11721975_s_at) / Fold change /veh TPSAB1 /// TPSB2 (11721975_s_at) / RFU GSTM3 (11746129_a_at) / Fold change /veh GSTM3 (11746129_a_at) / RFU IL23R (11737362_x_at) / Fold change /veh IL23R (11737362_x_at) / RFU TMEM51 (11727254_a_at) / Fold change /veh TMEM51 (11727254_a_at) / RFU PIWIL2 (11732686_x_at) / Fold change /veh PIWIL2 (11732686_x_at) / RFU ORM1 (11744905_x_at) / Fold change /veh ORM1 (11744905_x_at) / RFU CCDC152 (11743942_at) / Fold change /veh CCDC152 (11743942_at) / RFU ECM1 (11717891_a_at) / Fold change /veh ECM1 (11717891_a_at) / RFU IL23R (11748794_a_at) / Fold change /veh IL23R (11748794_a_at) / RFU TNFAIP8L3 (11732012_x_at) / Fold change /veh TNFAIP8L3 (11732012_x_at) / RFU MBOAT4 (11741988_at) / Fold change /veh MBOAT4 (11741988_at) / RFU 11764193_at / Fold change /veh 11764193_at / RFU TMEM53 (11763286_at) / Fold change /veh TMEM53 (11763286_at) / RFU MAGEB2 (11727129_at) / Fold change /veh MAGEB2 (11727129_at) / RFU TMEM200A (11744735_a_at) / Fold change /veh TMEM200A (11744735_a_at) / RFU CCDC152 (11751479_a_at) / Fold change /veh CCDC152 (11751479_a_at) / RFU FAM211A (11726209_a_at) / Fold change /veh FAM211A (11726209_a_at) / RFU RGS16 (11746705_a_at) / Fold change /veh RGS16 (11746705_a_at) / RFU VCAN (11755009_s_at) / Fold change /veh VCAN (11755009_s_at) / RFU RHOB (11743442_s_at) / Fold change /veh RHOB (11743442_s_at) / RFU RGS16 (11720943_a_at) / Fold change /veh RGS16 (11720943_a_at) / RFU RGS16 (11720944_at) / Fold change /veh RGS16 (11720944_at) / RFU, VPS4B / Fold change vs veh, VPS4B / RFU, CREB1 / Fold change vs veh, CREB1 / RFU, DNAJC13 / Fold change vs veh, DNAJC13 / RFU, GNAQ / Fold change vs veh, GNAQ / RFU, CDK5R1 / Fold change vs veh, CDK5R1 / RFU, ZRANB3 / Fold change vs veh, ZRANB3 / RFU, CUL4A / Fold change vs veh, CUL4A / RFU, CCNY / Fold change vs veh, CCNY / RFU, UFL1 / Fold change vs veh, UFL1 / RFU, COG3 / Fold change vs veh, COG3 / RFU, DIAPH2 / Fold change vs veh, DIAPH2 / RFU, SKA2 / Fold change vs veh, SKA2 / RFU, AFF3 / Fold change vs veh, AFF3 / RFU, LMF1 / Fold change vs veh, LMF1 / RFU, IPO11 / Fold change vs veh, IPO11 / RFU, DFFB / Fold change vs veh, DFFB / RFU, FOXP1 / Fold change vs veh, FOXP1 / RFU, CARD8 / Fold change vs veh, CARD8 / RFU, STRN3 / Fold change vs veh, STRN3 / RFU, ADK / Fold change vs veh, ADK / RFU, RASSF2 / Fold change vs veh, RASSF2 / RFU, WIPF1 / Fold change vs veh, WIPF1 / RFU, LARP1B / Fold change vs veh, LARP1B / RFU, RASA1 / Fold change vs veh, RASA1 / RFU, RB1 / Fold change vs veh, RB1 / RFU, PPFIA1 / Fold change vs veh, PPFIA1 / RFU, MAT2A / Fold change vs veh, MAT2A / RFU, CCT5 / Fold change vs veh, CCT5 / RFU, WDR92 / Fold change vs veh, WDR92 / RFU, CUX1 / Fold change vs veh, CUX1 / RFU, TTC7A / Fold change vs veh, TTC7A / RFU, TMEM135 / Fold change vs veh, TMEM135 / RFU, DEPTOR / Fold change vs veh, DEPTOR / RFU, CPM / Fold change vs veh, CPM / RFU, DNAJB6 / Fold change vs veh, DNAJB6 / RFU, CACNA2D3 / Fold change vs veh, CACNA2D3 / RFU, DTX4 / Fold change vs veh, DTX4 / RFU, TFCP2 / Fold change vs veh, TFCP2 / RFU, GMCL1 /// GMCL1P1 / Fold change vs veh, GMCL1 /// GMCL1P1 / RFU, AEBP2 / Fold change vs veh, AEBP2 / RFU, SNHG1 /// SNORD22 /// SNORD25 /// SNORD26 /// SNORD27 /// SNORD28 /// SNORD29 /// SNORD31 / Fold change vs veh, SNHG1 /// SNORD22 /// SNORD25 /// SNORD26 /// SNORD27 /// SNORD28 /// SNORD29 /// SNORD31 / Fold change (Aza/veh), C12orf56 (ProbeSet 11735607_a_at) / Fold change (ACY-1035/veh), C12orf56 (ProbeSet 11735607_a_at) / Fold change (Aza/veh), FGFR1OP (ProbeSet 11751329_s_at) / Fold change (ACY-1035/veh), FGFR1OP (ProbeSet 11751329_s_at) / Fold change (Aza/veh), VPS36 (ProbeSet 11739960_a_at) / Fold change (ACY-1035/veh), VPS36 (ProbeSet 11739960_a_at) / RFU SYPL1 (11715823_x_at) / Fold change /veh SYPL1 (11715823_x_at) / RFU IGFBP7 (11715501_s_at) / Fold change /veh IGFBP7 (11715501_s_at) / RFU REEP3 (11722064_at) / Fold change /veh REEP3 (11722064_at) / RFU IGLL1 (11728026_x_at) / Fold change /veh IGLL1 (11728026_x_at): dose or concentration left out as unconfirmed
Settings: MV-4-11 cells, 48 hours

`Nc1ncn([C@@H]2O[C@H](CO)[C@@H](O)[C@H]2O)c(=O)n1` [azacitidine] was tested, and the “RFU FAM167A (11723789_a_at)” value was 38.83 RFU.
